Test results: patent US20220289746A1, “PYRROLIDINE DERIVATIVES” (Hoffmann-La Roche Inc., priority 2019, published 2022)
pEC50: −log10 of the molar value.

Key:
[1] = target: T1, human M4 receptor (Homo sapiens, UniProt P08173); test: cAMP assay for M4 positive allosteric modulators (M4 PAM cAMP assay); assay type: cell-based; design: expressed in transfected cells; host or cells: CHO-K1; conditions: Table 1; CHO-K1 cells expressing human M4; forskolin 7.5 μM + acetylcholine EC20 (0.2 nM)
T1 sequence (P08173 1-479): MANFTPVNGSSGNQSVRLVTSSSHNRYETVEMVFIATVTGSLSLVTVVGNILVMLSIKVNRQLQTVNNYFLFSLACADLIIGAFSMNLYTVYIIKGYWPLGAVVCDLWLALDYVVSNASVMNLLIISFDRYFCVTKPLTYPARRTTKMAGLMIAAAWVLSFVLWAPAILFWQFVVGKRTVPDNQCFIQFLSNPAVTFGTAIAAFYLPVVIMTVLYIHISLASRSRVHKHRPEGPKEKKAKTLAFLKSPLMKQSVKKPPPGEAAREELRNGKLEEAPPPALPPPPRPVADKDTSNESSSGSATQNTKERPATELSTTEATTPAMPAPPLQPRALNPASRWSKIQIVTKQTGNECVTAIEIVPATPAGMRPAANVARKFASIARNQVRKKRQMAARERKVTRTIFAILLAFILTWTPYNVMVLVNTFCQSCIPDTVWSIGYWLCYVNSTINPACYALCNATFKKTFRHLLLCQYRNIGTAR
Description: The potency of M4 PAMs was determined using a cell-based cyclic adenosine monophosphate assay. The assay was performed with CHO-Kl cells stably expressing untagged human M4 receptor and cAMP was quantified using the Nano-TRF Detection Assay kit (Roche, Cat. No. 05214386) as described in the kit instructions. The cells were grown in Ham's F-12 Nutrient mix supplemented with 10% FBS and 200 μg/ml geneticin until they reached 80% confluency. The cells were washed with PBS, detached with accutase and resuspended in assay buffer consisting of HBSS and 0.1% BSA. They were then seeded in black 384-well plates (Corning, Cat. No. 3764) at a density of 20,000 cells/20 μl per well until the addition of compounds.
Test compounds were serially diluted 1:2 in 100% DMSO and spotted in 384-well plates at 0.5 μl/well. The compounds were then diluted in water containing IBMX (Sigma, Cat. No. 17018) and a sample (5 μl) was added to the cells for 15 minutes at 37° C./5% CO2. After this incubation the cells were stimulated with a combination of forskolin (7.5 μM) and acetylcholine EC20 (0.2 nM) in assay buffer for 30 minutes at 37° C./5% CO2. The assay was stopped by adding cAMP detection mix (15 μl/well, containing detergents for cell lysis) for one hour at RT.
The test plates were read using a SpectraMax i3x reader (Molecular Devices). The exported raw data was used to calculate the FRET signal based on the P-factor as per cAMP kit instructions. The data was normalized to the activity of acetylcholine plus forskolin, with 2 nM of acetylcholine plus 7.5 μM forskolin defined as 100% activity. Dose response curves were fitted to the percent activity data of the compounds using a sigmoidal dose response model (XLfit, IDBS) and the data were reported as EC50 and percent efficacy.

[2] = target: T1, human M4 receptor; test: Calcium flux assay using fluorescent imaging (M4 PAM FLIPR assay); assay type: cell-based; design: expressed in transfected cells; host or cells: CHO (monoclonal line, clone 2); conditions: Table 1; CHO cells expressing human M4+Gqi5; acetylcholine EC20
Description: CHO cells were transfected with expression plasmid encoding the human M4 receptor and a Gqi5 construct to redirect Gi signaling to calcium. Stable cells were cloned by limiting dilution to yield a monoclonal cell line expressing human M4+Gqi5 (clone 2). The stable cells were grown in DMEM containing 10% FBS, 200 ug/ml Geneticin and 800 ug/ml Hygromycin at 37° C. in a 10% CO2 incubator at 95% humidity.
Calcium Flux Assay Using Fluorescent Imaging (“M4 PAM FLIPR” Assay)
On the afternoon before the assay, cells were plated at a density of 50,000 cells/well into black 96 well plates with clear bottoms to yield a confluent monolayer the next day. Hanks balanced salt solution, without phenol red, containing 20 mM HEPES (pH 7.3) and 2.5 mM probenecid (assay buffer) was prepared fresh for each experiment. Compound dilutions were made using a Beckman Biomek 2000 laboratory automation workstation, in assay buffer. The dye-loading buffer consisted of a final concentration of 2 μM Fluo-4-AM (dissolved in DMSO and pluronic acid) and 65 μg/ml amidoblack in assay buffer. The existing culture media was removed from the wells and 100 μl of the dye-loading buffer was added to each well and incubated for approximately 90 min at 37° C. in a 5% CO2 incubator at 95% humidity.
Calcium flux in the dye-loaded cells was measured with the fluorescence reader Hamamatsu FDSS 7000. To test compounds as agonists, compound addition (25 μl) was made 10 s into the fluorescent measurements and fluorescent response was recorded for 3 minutes. The fluorescence data was expressed as percentage of the fluorescence obtained by an EC100 concentration (3 μM) of the endogenous full agonist acetylcholine. Each test compound concentration-response curve was constructed using a four parameter logistic equation in Microsoft Excel XLFit as follows:
Y=Minimum+((Maximum−Minimum)/(1+10^(LogEC50−X)nH)).
The concentration of agonist that produced a half-maximal response is represented by the EC50 value. Maximum and minimum are the maximum and minimum fluorescence signal in % respectively. nH is the Hill slope.
To measure positive allosteric modulator activity 25 μl of an EC20 concentration of the endogenous agonist acetylcholine is added to the cells already pre-incubated with the test compound for 15 minutes.
The M4 PAM dose response is constructed using the agonist dose-response equation above. The concentration of PAM that produced a half-maximal response is represented by the EC50 value and the maximum signal measured is the PAM efficacy expressed in % of the EC100 (3 μM) acetylcholine response. • cAMP Assay for M4 Positive Allosteric Modulators (“M4 PAM cAMP” Assay)

SMILES: Cc1nc2c(c(C)c1Cl)CN(C(=O)[C@@H]1CCN(c3ccncc3)C1)C2 [Example 3, (3-chloro-2,4-dimethyl-5,7-dihydropyrrolo[3,4-b]pyridin-6-yl)-[(3R)-1-(4-pyridyl)pyrrolidin-3-yl]methanone]
- pEC50 [1]: 6.11
- pEC50 [2]: 6.31

SMILES: Cc1ccc(N2CC[C@@H](C(=O)N3Cc4nc(C)c(Cl)c(C)c4C3)C2)cn1 [Example 4, (3-chloro-2,4-dimethyl-5,7-dihydropyrrolo[3,4-b]pyridin-6-yl)-[(3R)-1-(6-methyl-3-pyridyl)pyrrolidin-3-yl]methanone]
- pEC50 [1]: 6.16
- pEC50 [2]: 6.26

SMILES: Cc1cc(N2CC[C@@H](C(=O)N3Cc4nc(C)c(Cl)c(C)c4C3)C2)ccn1 [Example 5, (3-chloro-2,4-dimethyl-5,7-dihydropyrrolo[3,4-b]pyridin-6-yl)-[(3R)-1-(2-methyl-4-pyridyl)pyrrolidin-3-yl]methanone]
- pEC50 [1]: 6.21
- pEC50 [2]: 6.31

SMILES: Cc1nc2c(c(C)c1Cl)CN(C(=O)[C@@H]1CCN(c3ccnc(C4CC4)n3)C1)C2 [Example 6, (3-chloro-2,4-dimethyl-5,7-dihydropyrrolo[3,4-b]pyridin-6-yl)-[(3R)-1-(2-cyclopropylpyrimidin-4-yl)pyrrolidin-3-yl]methanone]
- pEC50 [1]: 5.42
- pEC50 [2]: 6.03

SMILES: Cc1nc2c(c(C)c1Cl)CN(C(=O)[C@@H]1CCN(c3ncc(C(F)(F)F)cn3)C1)C2 [Example 7, (3-chloro-2,4-dimethyl-5,7-dihydropyrrolo[3,4-b]pyridin-6-yl)-[(3R)-1-[5-(trifluoromethyl)pyrimidin-2-yl]pyrrolidin-3-yl]methanone]
- pEC50 [1]: 5.68
- pEC50 [2]: 5.99

SMILES: Cc1cnc(N2CC[C@@H](C(=O)N3Cc4nc(C)c(Cl)c(C)c4C3)C2)nc1 [Example 8, (3-chloro-2,4-dimethyl-5,7-dihydropyrrolo[3,4-b]pyridin-6-yl)-[(3R)-1-(5-methylpyrimidin-2-yl)pyrrolidin-3-yl]methanone]
- pEC50 [1]: 5.28
- pEC50 [2]: 5.63

SMILES: Cc1nc2c(c(C)c1Cl)CN(C(=O)[C@@H]1CCN(c3ccc(C(F)(F)F)nc3)C1)C2 [Example 9, (3-chloro-2,4-dimethyl-5,7-dihydropyrrolo[3,4-b]pyridin-6-yl)-[(3R)-1-[6-(trifluoromethyl)-3-pyridyl]pyrrolidin-3-yl]methanone]
- pEC50 [1]: 5.97
- pEC50 [2]: 5.87

SMILES: COc1ccc(N2CC[C@@H](C(=O)N3Cc4nc(C)c(Cl)c(C)c4C3)C2)cn1 [Example 10, (3-chloro-2,4-dimethyl-5,7-dihydropyrrolo[3,4-b]pyridin-6-yl)-[(3R)-1-(6-methoxy-3-pyridyl)pyrrolidin-3-yl]methanone]
- pEC50 [1]: 6.00
- pEC50 [2]: 5.99

SMILES: CNc1ccc(N2CC[C@@H](C(=O)N3Cc4nc(C)c(Cl)c(C)c4C3)C2)cn1 [Example 11, (3-chloro-2,4-dimethyl-5,7-dihydropyrrolo[3,4-b]pyridin-6-yl)-[(3R)-1-[6-(methylamino)-3-pyridyl]pyrrolidin-3-yl]methanone]
- pEC50 [1]: 6.35
- pEC50 [2]: 5.87

SMILES: Cc1ncccc1N1CC[C@@H](C(=O)N2Cc3nc(C)c(Cl)c(C)c3C2)C1 [Example 12, (3-chloro-2,4-dimethyl-5,7-dihydropyrrolo[3,4-b]pyridin-6-yl)-[(3R)-1-(2-methyl-3-pyridyl)pyrrolidin-3-yl]methanone]
- pEC50 [1]: 5.90
- pEC50 [2]: 5.88

SMILES: Cc1ccncc1N1CC[C@@H](C(=O)N2Cc3nc(C)c(Cl)c(C)c3C2)C1 [Example 13, (3-chloro-2,4-dimethyl-5,7-dihydropyrrolo[3,4-b]pyridin-6-yl)-[(3R)-1-(4-methyl-3-pyridyl)pyrrolidin-3-yl]methanone]
- pEC50 [1]: 6.17
- pEC50 [2]: 6.28

SMILES: Cc1nc2c(c(C)c1Cl)CN(C(=O)[C@@H]1CCN(c3cncc(C(F)(F)F)c3)C1)C2 [Example 14, (3-chloro-2,4-dimethyl-5,7-dihydropyrrolo[3,4-b]pyridin-6-yl)-[(3R)-1-[5-(trifluoromethyl)-3-pyridyl]pyrrolidin-3-yl]methanone]
- pEC50 [1]: 5.66
- pEC50 [2]: 5.45

SMILES: Cc1nc2c(c(C)c1Cl)CN(C(=O)[C@@H]1CCN(c3cncc(C(F)F)c3)C1)C2 [Example 15, (3-chloro-2,4-dimethyl-5,7-dihydropyrrolo[3,4-b]pyridin-6-yl)-[(3R)-1-[5-(difluoromethyl)-3-pyridyl]pyrrolidin-3-yl]methanone]
- pEC50 [1]: 6.46
- pEC50 [2]: 6.51

SMILES: Cc1nc2c(c(C)c1Cl)CN(C(=O)[C@@H]1CCN(c3cncc(C4CC4)c3)C1)C2 [Example 16, (3-chloro-2,4-dimethyl-5,7-dihydropyrrolo[3,4-b]pyridin-6-yl)-[(3R)-1-(5-cyclopropyl-3-pyridyl)pyrrolidin-3-yl]methanone]
- pEC50 [1]: 5.44
- pEC50 [2]: 6.09

SMILES: Cc1nc2c(c(C)c1Cl)CN(C(=O)[C@@H]1CCN(c3cncc(OC(F)F)c3)C1)C2 [Example 17, (3-chloro-2,4-dimethyl-5,7-dihydropyrrolo[3,4-b]pyridin-6-yl)-[(3R)-1-[5-(difluoromethoxy)-3-pyridyl]pyrrolidin-3-yl]methanone]
- pEC50 [1]: 6.64
- pEC50 [2]: 6.62

SMILES: COc1cncc(N2CC[C@@H](C(=O)N3Cc4nc(C)c(Cl)c(C)c4C3)C2)c1 [Example 18, (3-chloro-2,4-dimethyl-5,7-dihydropyrrolo[3,4-b]pyridin-6-yl)-[(3R)-1-(5-methoxy-3-pyridyl)pyrrolidin-3-yl]methanone]
- pEC50 [1]: 6.78
- pEC50 [2]: 6.26

SMILES: Cc1nc2c(c(C)c1Cl)CN(C(=O)[C@@H]1CCN(c3cncc(S(C)(=O)=O)c3)C1)C2 [Example 19, (3-chloro-2,4-dimethyl-5,7-dihydropyrrolo[3,4-b]pyridin-6-yl)-[(3R)-1-(5-methylsulfonyl-3-pyridyl)pyrrolidin-3-yl]methanone]
- pEC50 [1]: 6.42
- pEC50 [2]: 6.35

SMILES: Cc1nc2c(c(C)c1Cl)CN(C(=O)[C@@H]1CCN(c3ccnc(C(F)F)c3)C1)C2 [Example 20, (3-chloro-2,4-dimethyl-5,7-dihydropyrrolo[3,4-b]pyridin-6-yl)-[(3R)-1-[2-(difluoromethyl)-4-pyridyl]pyrrolidin-3-yl]methanone]
- pEC50 [1]: 7.10
- pEC50 [2]: 6.74
